Measurements taken from US20020051821A1, “Aliginate particle formulation” (priority 2000, published 2002).

Type: in vitro ADME
Conditions: human, topical or ocular, 3 mg
Method: For a composition performance test that more closely parallels eventual practical use, candidate particle compositions can be injected into dermatomed, full thickness human skin samples. Replicate skin samples after injection can be placed on modified Franz diffusion cells containing 32° C. water, physiologic saline or buffer. Additives such as surfactants may be used to prevent binding to diffusion cell components and to maintain sink conditions. Two kinds of measurements can be made to assess performance of the formulation in the skin.
To measure the formulation performance in vitro, the active (guest) component(s) of candidate compositions can be collected by complete or aliquot replacement of the Franz cell receiver solution at predetermined time intervals for chemical assay using HPLC or other suitable analytical technique. Concentration data can be used to generate a delivery profile and calculate a steady state permeation rate. This technique can be used to screen formulations for early indication of drug binding to skin, drug dissolution, efficiency of particle penetration of stratum corneum, etc., prior to in vivo studies.
Modified Franz cells (6.9 ml) were designed for investigation of transdermal flux (FIG. 1). […]

Substance	Bioavailability
Alginate	63.8%
lysozyme [Neat lysozyme]	7.1%
